{
  "source": "ChEMBL document CHEMBL3044731",
  "about": "“Insecticidal Effects of Organotin(IV) Compounds on Plutella Xylostella (L.) Larvae. II. Inhibitory Potencies Against Acetylcholinesterase and Evidence for Synergism in Tests With Bacillus Thuringiensis(BER.) and Malathion” (Met Based Drugs, 1994)",
  "key": {"[1]": {"tested_on": "Plutella xylostella", "experiment": "Insecticidal activity against drug-resistant Plutella xylostella (diamondback moth) fourth-instar larvae exposed to compound through topical application followed by transfer onto fresh Brassica leaves assessed as insect mortality measured 48 hr post compound application", "format": "functional"}, "[2]": {"biological_target": "Acetylcholinesterase (Plutella xylostella) (UniProt Q8MZM0)", "sequence (Q8MZM0 entry or part of it)": "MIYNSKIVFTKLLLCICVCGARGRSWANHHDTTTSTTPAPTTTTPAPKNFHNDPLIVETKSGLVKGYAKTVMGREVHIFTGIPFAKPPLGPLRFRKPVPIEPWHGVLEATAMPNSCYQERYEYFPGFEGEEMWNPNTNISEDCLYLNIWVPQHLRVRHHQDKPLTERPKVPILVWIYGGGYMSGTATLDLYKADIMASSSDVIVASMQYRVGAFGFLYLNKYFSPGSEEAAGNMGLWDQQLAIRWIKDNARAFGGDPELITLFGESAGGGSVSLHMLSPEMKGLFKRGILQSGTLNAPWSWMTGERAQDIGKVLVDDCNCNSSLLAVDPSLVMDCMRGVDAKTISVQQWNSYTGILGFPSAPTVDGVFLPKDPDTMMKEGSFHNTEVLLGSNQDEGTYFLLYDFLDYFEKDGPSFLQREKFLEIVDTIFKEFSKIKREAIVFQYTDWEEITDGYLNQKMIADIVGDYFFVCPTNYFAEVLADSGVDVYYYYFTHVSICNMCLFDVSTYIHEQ", "experiment": "Inhibition of AChE in drug-resistant Plutella xylostella (diamondback moth) fourth-instar larvae homogenates at 0.1 mM using acetylthiocholine iodide substrate by colorimetric method"}, "[3]": {"biological_target": "T1, Acetylcholinesterase (Plutella xylostella, UniProt Q8MZM0)", "T1 sequence (Q8MZM0 whole entry)": "as the sequence (Q8MZM0 entry or part of it) above", "experiment": "Inhibition of AChE in drug-sensitive Plutella xylostella (diamondback moth) fourth-instar larvae homogenates using acetylthiocholine iodide substrate by colorimetric method", "conditions": "read-out: I50"}, "[4]": {"biological_target": "T1, Acetylcholinesterase", "experiment": "Inhibition of AChE in drug-resistant Plutella xylostella (diamondback moth) fourth-instar larvae homogenates using acetylthiocholine iodide substrate by colorimetric method", "conditions": "read-out: I50"}},
  "note": "pIC50: −log10 of the molar value. Several values for one entry are separate records, joined by “and”; a condition that tells them apart may be missing. Identical values can stand only once.",
  "data": [
    {"molecule": "1-(cyclopentyldiphenylstannyl)-1H-1,2,4-triazole", "values": [
      {"measurement": "LD50", "setting": "[1]", "result": 7.85, "unit": "×10⁻³ mol/L"}
    ]},
    {"molecule": "1-(dicyclopentyl(phenyl)stannyl)-1H-1,2,4-triazole", "values": [
      {"measurement": "LD50", "setting": "[1]", "result": 2.37, "unit": "×10⁻³ mol/L"}
    ]},
    {"molecule": "1-(tricyclopentylstannyl)-1H-1,2,4-triazole", "values": [
      {"measurement": "LD50", "setting": "[1]", "result": 0.27, "unit": "×10⁻³ mol/L"}
    ]},
    {"molecule": "4-(2-oxo-2-(triphenylstannyloxy)ethoxy)benzoic acid", "values": [
      {"measurement": "LD50", "setting": "[1]", "result": 0.69, "unit": "×10⁻³ mol/L"}
    ]},
    {"molecule": "5-(triphenylstannylthio)-1,3,4-thiadiazol-2-amine", "values": [
      {"measurement": "LD50", "setting": "[1]", "result": 2.31, "unit": "×10⁻³ mol/L"}
    ]},
    {"molecule": "CCOC(=O)CC(SP(=S)(OC)OC)C(=O)OCC", "note": "(configuration not stated) [MALATHION]", "values": [
      {"measurement": "LD50", "setting": "[1]", "result": 42.6, "unit": "×10⁻³ mol/L"}
    ]},
    {"molecule": "CNC(=O)ON=C(C)SC", "note": "[METHOMYL]", "values": [
      {"measurement": "LD50", "setting": "[1]", "result": 1.43, "unit": "×10⁻³ mol/L"}
    ]},
    {"molecule": "(4-chlorophenyl)diphenylstannyl 2-(dimethylcarbamothioylthio)acetate", "values": [
      {"measurement": "LD50", "setting": "[1]", "result": 2.36, "unit": "×10⁻³ mol/L"}
    ]},
    {"molecule": "(4-chlorophenyl)diphenylstannyl 2-(phenylcarbamoylthio)acetate", "values": [
      {"measurement": "inhibition", "setting": "[2]", "result": 15.8, "unit": "%"}
    ]},
    {"molecule": "DICYCLOPENTYL(PHENYL)STANNANOL", "values": [
      {"measurement": "LD50", "setting": "[1]", "result": 3.7, "unit": "×10⁻³ mol/L"}
    ]},
    {"molecule": "METHYL TRIPHENYLSTANNYL OXALATE", "values": [
      {"measurement": "LD50", "setting": "[1]", "result": 4.5, "unit": "×10⁻³ mol/L"}
    ]},
    {"molecule": "S-triphenylstannyl piperidine-1-carbothioate", "values": [
      {"measurement": "inhibition", "setting": "[2]", "result": 14.8, "unit": "%"}
    ]},
    {"molecule": "TRIPHENYLSTANNYL 2-(DIMETHYLCARBAMOTHIOYLTHIO)ACETATE", "values": [
      {"measurement": "pIC50", "setting": "[3]", "result": 1.58}
    ]},
    {"molecule": "TRIPHENYLSTANNYL 2-(DIMETHYLCARBAMOYLTHIO)ACETATE", "values": [
      {"measurement": "pIC50", "setting": "[3]", "result": 5.27},
      {"measurement": "pIC50", "setting": "[4]", "result": 1.88}
    ]},
    {"molecule": "TRIPHENYLSTANNYL 2-(PHENYLCARBAMOYLTHIO)ACETATE", "values": [
      {"measurement": "inhibition", "setting": "[2]", "result": 31.1, "unit": "%"},
      {"measurement": "LD50", "setting": "[1]", "result": 1.5, "unit": "×10⁻³ mol/L"}
    ]},
    {"molecule": "TRIPHENYLSTANNYL 2-([sequence])ACETATE", "values": [
      {"measurement": "inhibition", "setting": "[2]", "result": "27.6% and 31.8% and 42.1%"},
      {"measurement": "LD50", "setting": "[1]", "result": "3.23 ×10⁻³ mol/L and 1.8 ×10⁻³ mol/L"}
    ]},
    {"molecule": "TRIPHENYLSTANNYL 2-([sequence])ACETATE HYDRATE", "values": [
      {"measurement": "LD50", "setting": "[1]", "result": 24, "unit": "×10⁻³ mol/L"}
    ]},
    {"molecule": "TRIPHENYLSTANNYL 2-([sequence])BENZOATE", "values": [
      {"measurement": "LD50", "setting": "[1]", "result": 2.06, "unit": "×10⁻³ mol/L"}
    ]},
    {"molecule": "TRIPHENYLSTANNYL 4-OXOPENTANOATE", "values": [
      {"measurement": "LD50", "setting": "[1]", "result": 6.95, "unit": "×10⁻³ mol/L"}
    ]},
    {"molecule": "TRIPHENYLSTANNYL ACETATE", "values": [
      {"measurement": "LD50", "setting": "[1]", "result": 6.06, "unit": "×10⁻³ mol/L"}
    ]},
    {"molecule": "[sequence] 2-([sequence])ACETATE", "values": [
      {"measurement": "LD50", "setting": "[1]", "result": 1.78, "unit": "×10⁻³ mol/L"}
    ]},
    {"molecule": "tricyclohexylstannyl 2-(piperidine-1-carbonothioylthio)acetate", "values": [
      {"measurement": "LD50", "setting": "[1]", "result": 0.18, "unit": "×10⁻³ mol/L"}
    ]},
    {"molecule": "tricyclohexylstannyl 2-(quinolin-8-yloxy)acetate", "values": [
      {"measurement": "LD50", "setting": "[1]", "result": 0.57, "unit": "×10⁻³ mol/L"}
    ]},
    {"molecule": "triphenylstannyl 2-(2,4-dichlorophenylcarbamoylthio)acetate", "values": [
      {"measurement": "inhibition", "setting": "[2]", "result": 13.4, "unit": "%"}
    ]},
    {"molecule": "triphenylstannyl 2-(4-chlorophenoxy)acetate", "values": [
      {"measurement": "LD50", "setting": "[1]", "result": 2.26, "unit": "×10⁻³ mol/L"}
    ]},
    {"molecule": "triphenylstannyl 2-(4-chlorophenylcarbamoylthio)acetate", "values": [
      {"measurement": "inhibition", "setting": "[2]", "result": 74.6, "unit": "%"},
      {"measurement": "LD50", "setting": "[1]", "result": 0.9, "unit": "×10⁻³ mol/L"}
    ]},
    {"molecule": "triphenylstannyl 2-(4-nitrophenoxy)acetate", "values": [
      {"measurement": "LD50", "setting": "[1]", "result": 4.38, "unit": "×10⁻³ mol/L"}
    ]},
    {"molecule": "triphenylstannyl 2-((2-isopropyl-5-methylcyclohexyloxy)carbonothioylthio)acetate", "values": [
      {"measurement": "LD50", "setting": "[1]", "result": 3.62, "unit": "×10⁻³ mol/L"}
    ]},
    {"molecule": "triphenylstannyl 2-(morpholine-4-carbonothioylthio)acetate", "values": [
      {"measurement": "LD50", "setting": "[1]", "result": 1.66, "unit": "×10⁻³ mol/L"}
    ]},
    {"molecule": "triphenylstannyl 2-(piperidine-1-carbonylthio)acetate", "values": [
      {"measurement": "inhibition", "setting": "[2]", "result": 24.4, "unit": "%"}
    ]},
    {"molecule": "triphenylstannyl 4-(2-carbamoylhydrazono)pentanoate", "values": [
      {"measurement": "LD50", "setting": "[1]", "result": 2.22, "unit": "×10⁻³ mol/L"}
    ]},
    {"molecule": "triphenylstannyl 4-oxo-4-phenylbutanoate", "values": [
      {"measurement": "LD50", "setting": "[1]", "result": 1.84, "unit": "×10⁻³ mol/L"}
    ]},
    {"molecule": "triphenylstannyl 6-(piperidine-1-carbonylthio)hexanoate", "values": [
      {"measurement": "inhibition", "setting": "[2]", "result": 27, "unit": "%"}
    ]}
  ]
}
